Test system: thrombin induced platelet aggregation
Assay: Thrombin induced platelet aggregation (Chronolog aggregometer)
Assay type: cell-based
Settings: 0.1 U/ml thrombin
Description: Platelets treated with 100 μM WHI-P131 or the parent compound, WHI-P258 (negative control), were stimulated with 0.1 U/ml thrombin or 10 μg/ml collagen. WHI-P131 is described above, WHI-P258 is an unsubstituted quinazoline and structurally shown below.
Platelet aggregation with respect to control was monitored in a Chronolog Model 560 Dual Chamber Platelet Aggregometer. […] WHI-P258 had no effect on the thrombin response (FIG. 1C).
Platelets treated with varying concentrations of WHI-P131 or WHI-P258 (negative control) were stimulated with 0.1 U/ml thrombin. Platelet aggregation with respect to control was monitored in a Chronolog Model 560 Dual Chamber Platelet Aggregometer. […] The results are charted in FIG. 2.

Row | IC50 (Platelet, varying concentrations) | Compound | effect on thrombin induced platelet aggregation (100 μM)
1 | – | COc1cc2ncnc(Nc3ccccc3)c2cc1OC [WHI-P258, 4-(phenyl)-amino-6,7-dimethoxyquinazoline] | no effect
2 | 1500 nM | COc1cc2ncnc(Nc3ccc(O)cc3)c2cc1OC [WHI-P131, 4-(4′-Hydroxyphenyl)-amino-6,7-dimethoxyquinazoline] | –
